This is an account of results in ChEMBL document CHEMBL1201862, “PubChem BioAssay data set” (2004).

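Five compound concentrations were applied to cells in 96-well plates for 48 hours; endpoints were derived by simple linear interpolation of the resulting dose-response curve. GI50 = concentration required for 50% inhibition of growth.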 Calls of active or inactive are those of the source. Rule as the data show it: active = GI50 up to about 1.1 µM and inactive = higher.

Some test systems named below: RXF 393; A549; HCC 2998; T47D; DU-145; SNB-19; K562; HL-60; IGROV-1; NCI-H460; HOP-62; HT-29; U-251; NCI-H522; PC-3; UO-31; SF-268; M14; SK-MEL-28; A498.
What all share (assay): NCI-60 cell line screen, 48 h

In the case of `COC(=O)Nc1nc2cc(Oc3ccc4nc(NC(=O)OC)[nH]c4c3)ccc2[nH]1`, the GI50 with RXF 393 was 0.74 µM (active); with A549, 2.25 µM (inactive); with HCC 2998 it was 0.984 µM (active); in the assay on T47D, 2.59 µM (inactive); in the assay with DU-145, 0.791 µM (active); in the assay with SNB-19, 1.29 µM (inactive). The GI50 with K562 was 0.942 µM (active); in the assay with HL-60, 0.608 µM (active); in the assay with IGROV-1 it was 1.45 µM (inactive); with NCI-H460, 1.36 µM (inactive); in the assay on HOP-62, 1.56 µM (inactive); in the assay on HT-29 it was 1.14 µM (inactive). Also, the GI50 is 0.681 µM (active) in the assay with U-251; 1.34 µM (inactive) in the assay on NCI-H522; 0.419 µM (active) with PC-3; 11.9 µM (inactive) in the assay with UO-31; 1.36 µM (inactive) in the assay with SF-268; 0.993 µM (active) in the assay on M14. In the assay with SK-MEL-28, the GI50 is 0.713 µM (active).

On to `NC(=O)NOCC1NC(=O)NC1=O` (configuration not stated), for which the GI50 in the assay with RXF 393, in the assay with A549, in the assay with T47D, with DU-145, in the assay with SNB-19 and in the assay with K562 was > 100 µM (inactive) each time. The GI50 with HL-60 was 19.3 µM (inactive); in the assay with IGROV-1, > 100 µM (inactive); in the assay on NCI-H460, > 100 µM (inactive); in the assay on HOP-62, > 100 µM (inactive); in the assay with HT-29, > 100 µM (inactive); with A498, > 100 µM (inactive). The GI50 in the assay with U-251, in the assay with NCI-H522, in the assay on PC-3, in the assay on UO-31, in the assay with SF-268 and in the assay with M14 was > 100 µM (inactive) in each case. For the same molecule, in the assay on SK-MEL-28, the GI50 was > 100 µM (inactive).

Consider `O=C(O)c1cccc(OCCO)c1`, for which the GI50 in the assay on RXF 393, in the assay with A549, with T47D, in the assay on DU-145, with SNB-19 and in the assay on K562 was > 100 µM (inactive) each time. Besides, the GI50 in the assay with HL-60, in the assay with IGROV-1, in the assay on NCI-H460, in the assay on HOP-62, in the assay on HT-29 and in the assay with A498 was > 100 µM (inactive) each time. In addition, the GI50 in the assay on U-251, with NCI-H522, with PC-3, in the assay on UO-31, in the assay with SF-268 and in the assay with M14 was > 100 µM (inactive) each time. The GI50 in the assay with SK-MEL-28 is > 100 µM (inactive).

`CC(=O)O[C@@H]1CC2[C@@H](CCC3Cc4nc5c(nc4C[C@@]32C)CC2CC[C@@H]3C(CC[C@@]4(C)C3CC[C@@H]4C(C)CCCC(C)C)[C@@]2(C)C5)C2C[C@@H]3OC4(CCC(C)CO4)C(C)[C@@H]3[C@]21C` (some centres not stated): the GI50 in the assay on RXF 393 was 19.9 µM (inactive); in the assay on A549, > 100 µM (inactive); with HCC 2998, > 100 µM (inactive); in the assay with T47D it was > 100 µM (inactive); with DU-145, > 100 µM (inactive); with SNB-19 it was 65.2 µM (inactive). The GI50 in the assay on K562 is > 100 µM (inactive); in the assay with HL-60 it was > 100 µM (inactive); with IGROV-1 it was > 100 µM (inactive); in the assay on NCI-H460, > 100 µM (inactive); in the assay on HOP-62 it was 22.8 µM (inactive); in the assay on HT-29, > 100 µM (inactive). Further, the GI50 in the assay on U-251 is 84.1 µM (inactive); with NCI-H522, > 100 µM (inactive); in the assay with PC-3, > 100 µM (inactive); in the assay with SF-268 it was 39.3 µM (inactive); in the assay with M14, > 100 µM (inactive); in the assay on SK-MEL-28 it was > 100 µM (inactive).

`CC(=O)NC(CS/N=N/c1[nH]cnc1C(N)=O)C(=O)O` (configuration not stated): the GI50 in the assay with RXF 393 is > 100 µM (inactive); in the assay with A549, > 100 µM (inactive); in the assay with HCC 2998 it was 4.41 µM (inactive); in the assay on T47D it was > 24.1 µM (inactive); in the assay with DU-145, 1.78 µM (inactive); in the assay with SNB-19 it was > 100 µM (inactive). Besides, the GI50 in the assay with K562 was 0.791 µM (active); in the assay with HL-60, 1.16 µM (inactive); with IGROV-1, 5.81 µM (inactive); in the assay on NCI-H460, 5.57 µM (inactive); with HOP-62 it was 35.9 µM (inactive); with HT-29 it was > 46.9 µM (inactive). Moreover, the GI50 with U-251 was > 64.9 µM (inactive); in the assay with NCI-H522, 14.9 µM (inactive); with PC-3, 6.38 µM (inactive); with UO-31, 2.82 µM (inactive); in the assay with SF-268 it was 4.29 µM (inactive); with M14, 2.59 µM (inactive). In addition, the GI50 in the assay with SK-MEL-28 is > 100 µM (inactive).

As for `Cc1cc(C)nc(NS(=O)(=O)c2ccc(NNc3c4ccccc4nc4c(C(=O)Nc5ccc(S(N)(=O)=O)cc5)cccc34)cc2)n1`, the GI50 in the assay with RXF 393 was 40.1 µM (inactive); in the assay on A549 it was > 100 µM (inactive); in the assay with HCC 2998, 20.1 µM (inactive); with T47D, 4.23 µM (inactive); in the assay on DU-145, 42.6 µM (inactive); in the assay with SNB-19, 27.8 µM (inactive). For the same molecule, the GI50 in the assay with K562 was 27.9 µM (inactive); in the assay with HL-60, 34.9 µM (inactive); in the assay on IGROV-1, 34.6 µM (inactive); with NCI-H460, 37.6 µM (inactive); in the assay with HOP-62, 33.4 µM (inactive); with HT-29, 39.7 µM (inactive). Also, the GI50 with U-251 is 14.1 µM (inactive); in the assay on NCI-H522, 19.7 µM (inactive); in the assay on PC-3, 18.6 µM (inactive); in the assay on UO-31, 45.7 µM (inactive); with SF-268, 29.9 µM (inactive); in the assay on M14, > 100 µM (inactive). Further, the GI50 in the assay on SK-MEL-28 is 25.1 µM (inactive).

Turning to `C/C=C(/C)C(=O)O[C@@H]1CCN2CC[C@H](COC(=O)/C(=C/C)CO)C12` (some centres not stated), the GI50 with RXF 393 is > 44.9 µM (inactive); in the assay on A549, > 100 µM (inactive); with HCC 2998 it was 20.7 µM (inactive); in the assay on T47D it was > 100 µM (inactive); with DU-145, > 100 µM (inactive); in the assay with SNB-19, > 100 µM (inactive). Besides, the GI50 is 11.2 µM (inactive) with K562; > 59.8 µM (inactive) in the assay with HL-60; > 100 µM (inactive) in the assay on IGROV-1; 59.6 µM (inactive) in the assay on NCI-H460; > 100 µM (inactive) in the assay on HOP-62; 28.7 µM (inactive) in the assay on HT-29. Also, the GI50 with U-251 is > 100 µM (inactive); with NCI-H522, 49.4 µM (inactive); with PC-3, > 100 µM (inactive); in the assay with UO-31 it was > 87.7 µM (inactive); in the assay with SF-268 it was > 100 µM (inactive); in the assay with M14, 19.6 µM (inactive). For the same molecule, the GI50 with SK-MEL-28 was > 75 µM (inactive).
